The text below walks through data of patent publication US20050239867A1, “Methods of using and compositions comprising PDE4 modulators for the treatment and management of pulmonary hypertension” (priority 2004, published 2005).

For test [1], the system named is patients with PH. Nature of the test: Expanded clinical study in 213 PH patients, WHO functional class III or IV, 16 weeks. Type of test: in vivo, human. As for the experimental part: On the basis of the results of the above study 2, the clinical study is expanded with additional 213 PH patients for at least 16 weeks. The study is conducted with patients with PH, WHO functional class III or IV. Two hundred thirteen patients are randomized to receive either 400 mg bid or 800 mg bid of 3-(3,4-dimethoxy-phenyl)-3-(1-oxo-1,3-dihydro-isoindol-2-yl)-propionamide or placebo in a 1:1:1 ratio. The primary endpoint, a 6-minute walk distance, is evaluated at 16 weeks. The treated patients walk 36.4 meters further at 16 weeks compared to a 7.8 meter reduction in walk distance in the placebo group, for a treatment effect of 44.2 meters. Clinical worsening, defined by death, premature withdrawal from study, hospitalization for worsening of PH or institution of epoprostenol, occur in 37% of placebo-treated patients, compared with 11% of the patients treated with the compound of the invention.

A further test deals with TNF-α production. The test is described as follows: In vitro inhibition of cytokine (TNF-α) production following LPS-stimulation of human PBMC and human whole blood. Type of test: cell-based. As to conditions: in vitro studies; more potent than thalidomide. From the text: In a specific embodiment, the pharmacological properties of 3-(3,4-dimethoxy-phenyl)-3-(1-oxo-1,3-dihydro-isoindol-2-yl)-propionamide are characterized in in vitro studies. Studies examine the effects of the compound on the production of various cytokines. Inhibition of TNF-α production following LPS-stimulation of human PBMC and human whole blood by the compound is investigated in vitro. […] The pharmacological effects of 3-(3,4-dimethoxy-phenyl)-3-(1-oxo-1,3-dihydro-isoindol-2-yl)-propionamide may derive from its action as an inhibitor of the generation of inflammatory cytokines.

The subject of test [2] is patients with PH. Nature of the test: Clinical Study 2 in patients with PH, 12 weeks, placebo controlled. Type of test: in vivo, human.
Setting [3] is: 12 weeks, compared with placebo patients.
Setting [4] is: after 12 weeks of treatment, compared with placebo.

With `COc1ccc(C(CC(N)=O)N2Cc3ccccc3C2=O)cc1OC` (centres unmarked) [3-(3,4-Dimethoxy-phenyl)-3-(1-oxo-1,3-dihydro-isoindol-2-yl)-propionamide], in the test with patients with PH [1] (at 16 weeks, 400 mg bid or 800 mg bid), the “6-minute walk distance, walked further” value came out at 36.4 meters. In the test on patients with PH [1] (at 16 weeks, 400 mg bid or 800 mg bid, placebo 7.8 meter reduction), the “6-minute walk distance, treatment effect versus placebo” value turned out to be 44.2 meters. The “clinical worsening (death, premature withdrawal, hospitalization for worsening of PH or institution of epoprostenol), share of patients” value with patients with PH [1] (at least 16 weeks, placebo 37%) is 11%. The functional class result in the test with patients with PH [1] (treated versus placebo patients) was “improved significantly more”. Besides, the “pharmacological activity profile, potency relative to thalidomide” value in the test on TNF-α production is reported as “five to fifty”. For the same compound, in the test with patients with PH [2] (setting [3]), the dyspnea score entry was “improvements” and the functional class entry is on record as “improvements”. In the test with patients with PH [2] (setting [4]), the cardiac output result is given as “increase”, the pulmonary arterial pressure result was “decreases” and the pulmonary vascular resistance result is on record as “decreases”. For the same compound, the “6-minute walk distance, average walked farther” value in the test with patients with PH [2] (after 12 weeks, 400 mg for four weeks followed by 800 mg for eight weeks, NYHA functional class III) is 70 meters.
